Among the test systems are HS 578T breast; K-562 leukemia; MALME-3M melanoma; MDA-MB-231 breast; MDA-MB-435; MOLT-4 leukemia; NCI-H460 lung; OVCAR-5 ovarian; SN12C renal; UO-31 renal.
Holding throughout (assay): NCI tumour cell line growth inhibition, 48 h

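Grown in 96-well plates, cells were treated for 48 hours with each compound at five concentrations. Insufficient inhibition: endpoint recorded as highest concentration tested. The concentration for full growth arrest is given as TGI.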 A value given as a limit tells only on which side of the number the result lay.

As to `CC(C)(C)[C@H]1CCC2(OCCO2)[C@](O)(CCCO)C1`, the TGI with HS 578T breast, in the assay with K-562 leukemia, in the assay on MALME-3M melanoma, in the assay on MDA-MB-231 breast, in the assay with MDA-MB-435 and in the assay on MOLT-4 leukemia was over 100 µM throughout. For the same molecule, the TGI in the assay with NCI-H460 lung, in the assay with OVCAR-5 ovarian, in the assay with SN12C renal and with UO-31 renal was over 100 µM in each case.

Take `COc1cc2c(cc1OC)-c1cc3cc(OC)c(OC)cc3c(=O)n1CC2`: the TGI in the assay on HS 578T breast was over 57.5 µM; in the assay with K-562 leukemia, over 100 µM; in the assay on MALME-3M melanoma, over 79.5 µM; with MDA-MB-231 breast, over 70.4 µM; with MDA-MB-435, over 100 µM; in the assay with MOLT-4 leukemia, over 100 µM. Moreover, the TGI is over 100 µM in the assay with NCI-H460 lung, over 100 µM with OVCAR-5 ovarian, over 100 µM with SN12C renal and 13.2 µM with UO-31 renal.

Consider `Clc1nc(Cl)c(CBr)c(Cl)n1`, for which the TGI was over 56.8 µM in the assay with HS 578T breast; over 23.5 µM in the assay with K-562 leukemia; 28.7 µM in the assay on MALME-3M melanoma; 4.04 µM with MDA-MB-231 breast; 17 µM in the assay with MDA-MB-435; over 23 µM in the assay with MOLT-4 leukemia. Further, the TGI worked out at 18.5 µM with NCI-H460 lung, 15 µM in the assay with OVCAR-5 ovarian, 6.79 µM in the assay on SN12C renal and 9.01 µM in the assay with UO-31 renal.

Take `NC(=O)c1nnsc1NC=O`: the TGI with HS 578T breast, in the assay on K-562 leukemia, in the assay with MALME-3M melanoma, with MDA-MB-231 breast, with MDA-MB-435 and with MOLT-4 leukemia was over 100 µM throughout. Moreover, the TGI in the assay on NCI-H460 lung, in the assay with OVCAR-5 ovarian, with SN12C renal and in the assay with UO-31 renal was over 100 µM each time.

Take `CC(NC(=O)C(N)CC(=O)O)NC(=O)N(C)C(C)(C)C` (stereo not given): the TGI in the assay on HS 578T breast, with K-562 leukemia, with MALME-3M melanoma, with MDA-MB-231 breast, in the assay with MDA-MB-435 and in the assay with MOLT-4 leukemia was over 100 µM each time. For the same molecule, the TGI with NCI-H460 lung, with OVCAR-5 ovarian, in the assay on SN12C renal and in the assay with UO-31 renal was over 100 µM in each case.

`CCc1nc2ccc(C(F)(F)F)cc2[nH]c1=O`: the TGI with HS 578T breast, in the assay with K-562 leukemia, in the assay with MALME-3M melanoma, in the assay with MDA-MB-231 breast, with MDA-MB-435 and in the assay on MOLT-4 leukemia was over 100 µM each time. Moreover, the TGI with NCI-H460 lung, in the assay with OVCAR-5 ovarian, with SN12C renal and in the assay with UO-31 renal was over 100 µM in each case.

With `COC(=O)c1ccccc1C1CN=NC12Cc1cccc(C)c1C2=O` (stereo not given), the TGI in the assay with HS 578T breast, in the assay with K-562 leukemia, with MALME-3M melanoma, in the assay with MDA-MB-231 breast, in the assay with MDA-MB-435 and in the assay with MOLT-4 leukemia was over 100 µM in each case. In addition, the TGI in the assay with NCI-H460 lung is over 100 µM; in the assay on OVCAR-5 ovarian, over 100 µM; in the assay on SN12C renal it was over 100 µM; in the assay on UO-31 renal, 83.9 µM.

With `C#CCn1c(=O)c(Cl)cn(/C(=C/C(=O)OCC)C(=O)OCC)c1=O`, the TGI in the assay with HS 578T breast was over 100 µM; in the assay with K-562 leukemia, 7 µM; with MALME-3M melanoma it was 8.5 µM; with MDA-MB-231 breast, 35.1 µM; in the assay with MDA-MB-435, 35.8 µM; in the assay with MOLT-4 leukemia, over 23.9 µM. Moreover, the TGI is over 100 µM in the assay on NCI-H460 lung, 31.7 µM in the assay with OVCAR-5 ovarian, 50.6 µM in the assay with SN12C renal and 10.6 µM with UO-31 renal.

Take `O=[N+]([O-])c1c2nc3n(c2cc2c1nc1n2CCC1)CCC3`: the TGI in the assay on HS 578T breast, with K-562 leukemia, in the assay with MALME-3M melanoma, with MDA-MB-231 breast, with MDA-MB-435 and with MOLT-4 leukemia was over 100 µM in each case. Besides, the TGI with NCI-H460 lung, in the assay with OVCAR-5 ovarian, in the assay with SN12C renal and with UO-31 renal was over 100 µM in each case.

With `CCSc1nc(N)c2c(-c3ccccc3)c3c(nc2n1)CCC3`, the TGI in the assay with HS 578T breast, in the assay with K-562 leukemia, with MALME-3M melanoma, in the assay on MDA-MB-231 breast, with MDA-MB-435 and with MOLT-4 leukemia was over 100 µM in each case. The TGI is over 100 µM in the assay on NCI-H460 lung, over 100 µM with OVCAR-5 ovarian, over 100 µM in the assay on SN12C renal and 9.02 µM in the assay on UO-31 renal.

As for `CCOC(=O)Cn1c(=O)c2cc(-c3ccccc3)cc3c(Cl)nc4c(OC)c(OC)cc1c4c32`, the TGI is over 27.7 µM in the assay with HS 578T breast; over 55 µM with K-562 leukemia; 22 µM with MALME-3M melanoma; over 100 µM in the assay on MDA-MB-231 breast; 38.3 µM in the assay on MDA-MB-435; 14.2 µM in the assay on MOLT-4 leukemia. Moreover, the TGI with NCI-H460 lung was 39.1 µM; in the assay with OVCAR-5 ovarian, over 100 µM; with SN12C renal it was over 100 µM; in the assay with UO-31 renal, 43.8 µM.

Consider `CSc1nc2c(=O)n(-c3ccccc3)c(=S)n(-c3ccccc3)c2s1`, for which the TGI was 94.7 µM with HS 578T breast; over 100 µM in the assay on K-562 leukemia; over 100 µM in the assay on MALME-3M melanoma; over 100 µM in the assay on MDA-MB-231 breast; over 100 µM with MDA-MB-435; over 100 µM in the assay with MOLT-4 leukemia. Besides, the TGI in the assay with NCI-H460 lung, with OVCAR-5 ovarian, in the assay with SN12C renal and in the assay on UO-31 renal was over 100 µM throughout.

Take `CC(=O)NC(Cc1ccc(OP(=O)(OCc2ccc([N+](=O)[O-])o2)N(C)CCCCCl)cc1)C(=O)NC(C)c1ccc(OCC2CCCCC2)c(C(N)=O)c1` (stereo not given): the TGI with HS 578T breast was 4.65 µM; with K-562 leukemia it was over 100 µM; in the assay with MALME-3M melanoma, 5.65 µM; in the assay with MDA-MB-231 breast, 4.79 µM; with MDA-MB-435, 4.81 µM; in the assay on MOLT-4 leukemia, 26.3 µM. Also, the TGI in the assay with NCI-H460 lung worked out at 15.2 µM; in the assay with OVCAR-5 ovarian, 21.2 µM; in the assay on SN12C renal, 6.53 µM; with UO-31 renal it was 45.2 µM.

The record behind these values is PubChem BioAssay (NCI).
